Where two headings read alike, the source gives them in different places.
Assays:
[1] = test system: 786-O-Hif-Luc cells; assay: Luciferase Assay (HIF responsive elements reporter)
Description: A pool of infected cells were then selected against 2 μg/mL of puromycin (P8833, Sigma) for 10 days followed by limited dilution to select single clones. […] Each concentration was tested in triplicate. After about 24 hours, luciferase activity was determined using ONE-Glo Luciferase Assay Reagent (E6110, Promega) following the manufacturer's recommended procedure. EC50 were calculated using Dotmatics software.

[2] = target: T1, HIF-2α HIS TAG-PASB Domain (Homo sapiens, UniProt Q99814); assay: HIF-2α Scintillation Proximity Assay (SPA); type: binding
T1 construct: 100 nM HIF-2α HIS TAG-PASB Domain
In short: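 IC50 values rest on percent inhibition, where the sample signal is scaled between high and low controls. Wells contain about 100 μL: compound dispensed as 2 μL of DMSO solution, 88 μL protein-probe mix and 10 μL of beads.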

[3] = read-out: Mean Luciferase EC50 (nM), 786-O-Hif-Luc cells
[4] = read-out: Scintillation Proximity Assay IC50

T1 sequence (Q99814 240-350 limits assumed): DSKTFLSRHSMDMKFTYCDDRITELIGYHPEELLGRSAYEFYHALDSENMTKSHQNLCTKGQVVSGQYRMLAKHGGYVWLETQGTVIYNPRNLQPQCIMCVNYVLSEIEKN

| Compound | EC50 [1, 3] | IC50 [2, 4] | EC50 ([1]; read-out: Mean Luciferase EC50 (nM)) | IC50 ([2]; Scintillation Proximity Assay IC50 (nM)) |
| --- | --- | --- | --- | --- |
| O[C@H]1c2c(C(F)(F)F)ccc(OCC(F)F)c2[C@@H](F)C1(F)F [Compound 699] | 50 to 249 nM | < 50 nM |  |  |
| O=S(=O)(c1ccc(Oc2cc(F)cc(Cl)c2)c(Br)c1/C=N/O)C(F)(F)F [Compound 107] | 250 to 1000 nM | 50 to 249 nM |  |  |
| Cc1cc(C#N)cc(Oc2ccc3c(c2C(F)F)[C@@H](O)C(F)(F)S3(=O)=O)c1 [Compound 392] | 50 to 249 nM | < 50 nM |  |  |
| N#Cc1cccc(Oc2ccc(S(=O)(=O)C(F)F)c(C#N)c2Cl)c1 [Compound 40] | > 1000 nM | 250 to 1000 nM |  |  |
| O=S(=O)(c1ccc(Nc2cc(F)cc(F)c2)c2c1C(O)CC2)C(F)(F)F (stereo not shown) [Compound 506] | > 1000 nM | 250 to 1000 nM |  |  |
| CS(=O)(=O)c1ccc(Oc2cc(C#N)cc(C(F)F)c2)c2c1C(O)CC2 (stereo not shown) [Compound 249] | > 1000 nM | 250 to 1000 nM |  |  |
| CS(=O)(=O)c1ccc(Oc2cc(F)cc(C#N)c2)c2c1[C@H](O)C[C@@H]2F [Compound 295] | 250 to 1000 nM | 50 to 249 nM |  |  |
| CS(=O)(=O)c1ccc(Oc2cc(F)cc(C#N)c2)c2c1[C@H](O)C(F)(Cl)C2 (stereo partly shown) [Compound 270] | 50 to 249 nM | 50 to 249 nM |  |  |
| N#Cc1cc(F)cc(Oc2ccc(S(=O)(=O)CF)c3c2CC[C@H]3O)c1 [Compound 62] | 50 to 249 nM | < 50 nM |  |  |
| O=S(=O)(c1ccc(Oc2cc(F)cc(Cl)c2)c(Br)c1CNCc1ccccc1)C(F)(F)F [Compound 110] | > 1000 nM | > 1000 nM |  |  |
| O=S(=O)(c1ccc(OCC2(F)COC2)c2c1[C@H](O)C(F)(F)C2)C(F)(F)F [Compound 573] | 50 to 249 nM | < 50 nM |  |  |
| N#Cc1cc(F)cc(Oc2ccc(S(=O)(=O)C3CCC3)c3c2CC(F)(F)[C@H]3O)c1 [Compound 209] | > 1000 nM | 250 to 1000 nM |  |  |
| O=S(=O)(c1ccc(Oc2cncc(Cl)c2)c2c1[C@H](O)CC2)C(F)F [Compound 3] | 250 to 1000 nM | 250 to 1000 nM |  |  |
| CS(=O)(=O)c1ccc(OC(CF)CF)c2c1[C@H](O)C(F)(F)[C@@H]2F [Compound 762] | 250 to 1000 nM | 250 to 1000 nM |  |  |
| N#CN=S(=O)(CF)c1ccc(Oc2cc(F)cc(C#N)c2)c2c1[C@H](O)C(F)(F)C2 (stereo partly shown) [Compound 285] | 50 to 249 nM | 50 to 249 nM |  |  |
| O=S1(=O)c2ccc(Oc3cncc(F)c3)c(Br)c2[C@@H](O)C1(F)F [Compound 423] | 50 to 249 nM | 250 to 1000 nM |  |  |
| N#Cc1cc(F)cc(Oc2ccc(S(=O)(=O)C(F)(F)F)c3c2[C@@H](N)C[C@H]3O)c1 [Compound 279] | > 1000 nM | > 1000 nM |  |  |
| C[S+]([O-])c1ccc(Oc2cc(F)cc(C#N)c2)c2c1[C@H](O)C(F)(F)C2 (stereo partly shown) [Compound 272] | > 1000 nM | > 1000 nM |  |  |
| N#Cc1c(Oc2cccc(F)c2)ccc2c1[C@@H](O)CS2(=O)=O [Compound 422] | 250 to 1000 nM | 250 to 1000 nM |  |  |
| O=S(=O)(c1ccc(Oc2c(F)ccc3[nH]ncc23)c2c1C(O)C(F)(F)C2)C(F)(F)F (stereo not shown) [Compound 244] | > 1000 nM | 250 to 1000 nM |  |  |
| O/N=C1/c2c(C(F)(F)F)ccc(OCCCF)c2[C@@H](F)C1(F)F [Compound 581] | > 1000 nM | < 50 nM |  |  |
| CCC(COC)Oc1ccc(S(=O)(=O)C(F)(F)F)c2c1CC(F)(F)C2O (stereo not shown) [Compound 747] | 250 to 1000 nM | 50 to 249 nM |  |  |
| CS(=N)(=O)c1ccc(Oc2cc(F)cc(F)c2)c2c1C(O)CC2 (stereo not shown) [Compound 190] | > 1000 nM | 250 to 1000 nM |  |  |
| CC1CC(Oc2ccc(S(=O)(=O)C(F)(F)F)c3c2CC(F)(F)C3O)CCO1 (stereo not shown) [Compound 623] | 50 to 249 nM | < 50 nM |  |  |

| Compound | EC50 [1, 3] | IC50 [2, 4] | EC50 ([1]; read-out: Mean Luciferase EC50 (nM)) | IC50 ([2]; Scintillation Proximity Assay IC50 (nM)) |
| --- | --- | --- | --- | --- |
| N[C@H]1C[C@@H](Oc2ccc(S(=O)(=O)C(F)(F)F)c3c2CC(F)(F)[C@H]3O)C1 [Compound 724] | > 1000 nM | > 1000 nM |  |  |
| CCS(=O)(=O)c1ccc(Oc2cc(F)cc(Cl)c2)c2c1C(O)CC2 (stereo not shown) [Compound 91] | > 1000 nM | 250 to 1000 nM |  |  |
| O=S(=O)(c1ccc(-c2ccccc2)c2c1[C@H](O)C(F)(F)C2)C(F)(F)F [Compound 487, (S)-2,2-difluoro-4-phenyl-7-((trifluoromethyl)sulfonyl)-2,3-dihydro-1H-inden-1-ol] | > 1000 nM | 250 to 1000 nM |  |  |
| N#CC1(CCOc2ccc(S(=O)(=O)C(F)(F)F)c3c2CC(F)(F)[C@H]3O)COC1 [Compound 749] | > 1000 nM | 250 to 1000 nM |  |  |
| O[C@@H]1CCc2c(Oc3cc(F)cc(F)c3)ccc(C(F)(F)F)c21 [Compound 58] | 50 to 249 nM | < 50 nM |  |  |
| Cc1cncc(Oc2ccc(S(C)(=O)=O)c3c2CC(F)(F)[C@H]3O)n1 [Compound 201] | > 1000 nM | < 50 nM |  |  |
| N#Cc1cncc(-c2ccc(S(=O)(=O)C(F)(F)F)c3c2CC(F)(F)[C@H]3O)c1 [Compound 570] | > 1000 nM | > 1000 nM |  |  |
| Cc1c(Oc2cc(F)cc(C#N)c2)ccc(S(=O)(=O)C(F)(F)F)c1Cl [Compound 144] | 250 to 1000 nM | < 50 nM |  |  |
| O=S(=O)(c1ccc(O[C@H]2C[C@H](O)C2)c2c1C(O)C(F)(F)C2)C(F)(F)F (stereo partly shown) [Compound 644] | 250 to 1000 nM | 250 to 1000 nM |  |  |
| COC(=O)COc1ccc(S(=O)(=O)C(F)(F)F)c2c1CC(F)(F)C2O (stereo not shown) [Compound 639] | > 1000 nM | > 1000 nM |  |  |
| N#Cc1cc(Oc2ccc(S(=O)(=O)C(F)F)c3c2CC(F)(F)[C@H]3O)ccc1F [Compound 200] | 50 to 249 nM | < 50 nM |  |  |
| CS(=O)(=O)c1ccc(Oc2cncc(Br)c2)c2c1[C@H](O)C(F)(F)C2 [Compound 324] | 250 to 1000 nM | 50 to 249 nM |  |  |
| N#Cc1c(Oc2cc(F)cc(Cl)c2)ccc(S(=O)(=O)C(F)F)c1CO [Compound 35] | > 1000 nM | > 1000 nM |  |  |
| CS(=O)(=O)c1ccc(O[C@H]2C[C@H](F)C2)c2c1[C@H](O)C(F)(F)[C@H]2F [Compound 737] | > 1000 nM | 50 to 249 nM |  |  |
| O=Cc1c(S(=O)(=O)C(F)(F)F)ccc(Oc2cc(F)cc(Cl)c2)c1Br [Compound 101] | 250 to 1000 nM | < 50 nM |  |  |
| O=S1(=O)c2ccc(Oc3cc(F)cc(Cl)c3)c(Br)c2[C@@H](O)C1(F)F [Compound 403] |  |  | < 50 nM | < 50 nM |
| CS(=O)(=O)c1ccc(OCC2CC(F)(F)C2)c2c1[C@H](O)C(F)(F)[C@@H]2F [Compound 759] | 250 to 1000 nM | 50 to 249 nM |  |  |
| CS(=O)(=O)c1ccc(Oc2cc(F)cc(C#N)c2)c2c1[C@H](O)C(F)(F)[C@H]2F [Compound 293] | 250 to 1000 nM | 250 to 1000 nM |  |  |
| N#C[C@H]1C[C@@H](Oc2ccc(S(=O)(=O)C(F)(F)F)c3c2CC(F)(F)[C@H]3O)C1 [Compound 787] | < 50 nM | < 50 nM |  |  |
| NC(=O)Cc1ccc(S(=O)(=O)C(F)(F)F)c2c1CCC2O (stereo not shown) [Compound 523, 2-[1-hydroxy-7-(trifluoromethylsulfonyl)indan-4-yl]acetamide] | 50 to 249 nM | 250 to 1000 nM |  |  |
| N#Cc1cncc(Oc2ccc(S(N)(=O)=O)c3c2CC(F)(F)[C@H]3O)c1 [Compound 253] | > 1000 nM | > 1000 nM |  |  |
| O=S(=O)(c1ccc(Oc2cncc(F)c2)c2c1[C@H](O)CC2)C(F)F [Compound 5] | 250 to 1000 nM | 250 to 1000 nM |  |  |
| COC[C@H](C)Oc1ccc(S(=O)(=O)C(F)(F)F)c2c1CC(F)(F)[C@H]2O [Compound 660] | 250 to 1000 nM | 50 to 249 nM |  |  |

Reference: US10278942B2 (PELOTON THERAPEUTICS, INC., priority 2015, dated 2019)
